Results as given in US9388419B2 (The Regents of the University of Colorado, a body corporate, priority 2009, dated 2016).
Where two headings read alike, the source gives them in different places.

What was measured:
[1] = tested on: Yeast strains (S288C background); assay type: cell-based, Saccharomyces cerevisiae
Method: The minimum inhibitory concentration (MIC) was determined aerobically in a 96 well-plate format. […] Media supplements were added according to levels reported in the Supplements Table, where specified. Overnight cultures of strains were grown in triplicate in 5 mL SD media with vitamins (Methods in Enzymology vol. 350, page 17 (2002)). A 1% (v/v) inoculum was introduced into a 5 ml culture of SD minimal media without vitamins. After the cells reached mid-exponential phase, the culture was diluted to an OD600 of 0.200. The cells were further diluted 1:5 and a 10 μL aliquot was used to inoculate each well of a 96 well plate (˜10^4 cells per well) to total volume of 100 uL. […] Plates were incubated for 72 hours at 30 C.

[2] = tested on: wild-type E. coli BW25113; assay: Toleragram / OD600 / doublings at 3HP 0-50 g/L, E. coli aerobic; assay type: cell-based, Escherichia coli; conditions: control E. coli, aerobic condition, FIG. 15B
Method: (§1) Overnight cultures of wild-type E. coli BW25113 were grown in triplicate in 5 mL standard LB medium. 100 uL of overnight cultures were used to inoculate triplicate 5 mL samples of M9 minimal medium+3HP, containing 47.7 mM Na2HPO4, 22 mM KH2PO4, 8.6 mM NaCl, 18.7 mM NH4Cl, 2 mM MgSO4, 0.1 mM CaCl2, and 0.4% glucose, with 3HP concentrations ranging from 0-50 g/L. Starting OD600 ranged from 0.02-0.08. Cultures were incubated at 37 C for about 24 hours, and OD600 was recorded every 1-2 hours for the first 8 hours with a final OD600 recorded at about 24 hours. Maximum specific growth rates (μmax) were calculated by determining the optimal fit of exponential trend lines with OD data for the evaluation period. Specific changes in OD600 over approximately 24 hours (Δ24hrOD600) were calculated as the difference in t=24 hr and t=0 optical density, Δ24hrOD600=(ODt=24)−(ODt=0). Specific number of doublings (Nd) were calculated by solving for N in the equation 2^N=(ODt=24)/(ODt=0).

B. subtilis = assay: MIC protocol B. subtilis aerobic (Common Methods, M9 media + glutamate, 24 hours); assay type: cell-based, Bacillus subtilis; conditions: strain BSX_0003.0 (pWH1520, control), M9 + glu + trp + 1 mM Xylose
Method: For MIC evaluations, the final results are expressed in chemical agent concentrations determined by analysis of the stock solution by HPLC (i.e., see Subsection Mb).
The minimum inhibitory concentration (MIC) was determined aerobically in a 96 well-plate format. […] Media supplements were added according to levels reported in the Supplements Table where specified. Overnight cultures of strains were grown in triplicate in 5 mL LB (with antibiotic where appropriate). A 1% (v/v) inoculum was introduced into a 5 ml culture of M9 minimal media+glutamate.

[3] = tested on: wild-type E. coli BW25113; assay: Toleragram / OD600 / doublings at 3HP 0-50 g/L, E. coli anaerobic; assay type: cell-based, Escherichia coli; conditions: control E. coli, anaerobic conditions, 24 hours
Method: as §1, with “Cultures were sparged with CO2 for 10 seconds, sealed, and incubated at” for “Cultures were incubated at”, “about 24 hours. OD600 was” for “about 24 hours, and OD600 was”, “1-2 hours during the first” for “1-2 hours for the first”, “24 hours. For each data point the sample was opened, sampled, re-sparged with CO2, and sealed once again. Maximum specific” for “24 hours. Maximum specific”

O=C(O)CCO [3-HP, 3-hydroxypropionic acid]
% Increase Over Control ([1]; S288C, SC media, no supplement, versus SD control, aerobic): 33%
% Increase Over Control ([1]; strain YX-022 (pyes2.1-Aro3 pRS425-ILV6) versus control, aerobic): 50%
% Increase Over Control ([1]; strain YX-CJR-010 (pyes2.1-Thr1) versus YX-CJR-001, aerobic): 50%
% Increase Over Control ([1]; strain YX-CJR-014 (pyes2.1-arg2) versus YX-CJR-001, aerobic): 50%
% Increase Over Control ([1]; strain YX-CJR-017 (pyes2.1-Aro7) versus YX-CJR-001, aerobic): 75%
3-HP concentration at which a dramatic reduction in cell density (OD600) at 24 hours starts [2]: ≥ 30 g/L
Avg 24 hr ΔOD600 (B. subtilis): 0.00
cell density response to 3-HP compared with aerobic condition [3]: relatively sharper and earlier drop
